How the values were obtained:
Type in all cases: biochemical
JNK3 = JNK3 (Homo sapiens, UniProt P53779); assay: JNK3 Kinase Activity; details: compound at 2 μm
Protocol: JNK3 Kinase Activity: In a final reaction volume of 25 μl, JNK3 (h) (5-10 mU) is incubated with 50 mM Tris pH 7.5, 0.1 mM EGTA, 0.1% β-mercaptoethanol, 250 μM peptide, 10 mM MgAcetate and [γ-^33P-ATP] (specific activity approx. 500 cpm/pmol, concentration as required). The reaction is initiated by the addition of the MgATP mix. After incubation for 40 minutes at room temperature, the reaction is stopped by the addition of 5 μl of a 3% phosphoric acid solution. 10 μl of the reaction is then spotted onto a P30 filtermat and washed three times for 5 minutes in 75 mM phosphoric acid and once in methanol prior to drying and scintillation counting.

Ret = Ret (Homo sapiens, UniProt P07949); assay: Protein kinase inhibition, Ret; details: Rate (μM) 2, read-out: % Control
p38γ = p38γ (Homo sapiens, UniProt P53778); assay: SAPK3 Kinase Activity (p38γ)
Protocol: SAPK3 Kinase Activity: In a final reaction volume of 25 μl, SAPK3 (h) (5-10 mU) is incubated with 25 mM Tris pH 7.5, 0.02 mM EGTA, 0.33 mg/ml myelin basic protein, 10 mM MgAcetate and [γ-^33P-ATP] (specific activity approx. 500 cpm/[…], concentration as required). The reaction is initiated by the addition of the MgATP mix. After incubation for 40 minutes at room temperature, the reaction is stopped by the addition of 5 μL of a 3% phosphoric acid solution. 10 μL of the reaction is the spotted onto a P30 filtermat and washed three times for 5 minutes in 75 mM phosphoric acid and once in methanol prior to drying and scintillation counting.

FGFR2 = FGFR2 (Homo sapiens, UniProt P21802); assay: Protein kinase inhibition, FGFR2; details: Rate (μM) 2, read-out: % Control
Ros = Ros (Homo sapiens, UniProt P08922); assay: Protein kinase inhibition, Ros; details: Rate (μM) 2, read-out: % Control
Flt3 = biological target: T1, Flt3 (Homo sapiens, UniProt P36888); assay: Flt3 Kinase Activity
T1 sequence (P36888 27-993): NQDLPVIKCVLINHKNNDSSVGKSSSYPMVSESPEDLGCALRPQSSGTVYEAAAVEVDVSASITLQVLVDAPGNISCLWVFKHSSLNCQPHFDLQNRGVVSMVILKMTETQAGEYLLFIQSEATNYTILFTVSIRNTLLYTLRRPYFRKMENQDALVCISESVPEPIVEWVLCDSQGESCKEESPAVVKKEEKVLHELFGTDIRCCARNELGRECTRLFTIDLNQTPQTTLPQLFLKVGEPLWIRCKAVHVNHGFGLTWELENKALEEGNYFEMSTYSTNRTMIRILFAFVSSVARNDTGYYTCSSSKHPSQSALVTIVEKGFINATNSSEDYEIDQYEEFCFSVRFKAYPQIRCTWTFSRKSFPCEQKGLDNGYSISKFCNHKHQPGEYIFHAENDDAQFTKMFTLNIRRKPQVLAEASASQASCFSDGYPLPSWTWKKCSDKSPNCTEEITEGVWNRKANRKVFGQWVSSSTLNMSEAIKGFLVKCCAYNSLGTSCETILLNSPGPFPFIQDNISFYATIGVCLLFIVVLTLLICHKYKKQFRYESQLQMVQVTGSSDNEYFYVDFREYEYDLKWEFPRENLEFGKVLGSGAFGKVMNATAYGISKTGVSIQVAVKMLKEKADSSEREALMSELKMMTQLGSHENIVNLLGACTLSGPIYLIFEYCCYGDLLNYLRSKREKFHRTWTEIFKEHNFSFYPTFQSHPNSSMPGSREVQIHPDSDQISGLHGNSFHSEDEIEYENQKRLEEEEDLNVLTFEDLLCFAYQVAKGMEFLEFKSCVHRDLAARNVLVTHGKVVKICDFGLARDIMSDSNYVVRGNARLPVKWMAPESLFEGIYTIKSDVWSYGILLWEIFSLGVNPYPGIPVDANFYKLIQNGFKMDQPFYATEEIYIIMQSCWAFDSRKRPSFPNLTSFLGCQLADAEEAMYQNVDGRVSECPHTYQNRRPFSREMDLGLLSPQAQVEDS
Protocol: Flt3 Kinase Activity: In a final reaction volume of 25 μl, Flt3 (h) (5-10 mU) is incubated with 8 mM MOPS pH 7.0, 0.2 mM EDTA, 50 μM EAIYAAPFAKKK, 10 mM MgAcetate and [γ-^33P-ATP] (specific activity approx. 500 cpm/pmol, concentration as required). The reaction is initiated by the addition of the MgATP mix. After incubation for 40 minutes at room temperature, the reaction is stopped by the addition of […] of a 3% phosphoric acid solution. […] of the reaction is then spotted onto a P30 filtermat and washed three times for 5 minutes in 75 mM phosphoric acid and once in methanol prior to drying and scintillation counting.

p38γ, sequence (P53778 whole entry): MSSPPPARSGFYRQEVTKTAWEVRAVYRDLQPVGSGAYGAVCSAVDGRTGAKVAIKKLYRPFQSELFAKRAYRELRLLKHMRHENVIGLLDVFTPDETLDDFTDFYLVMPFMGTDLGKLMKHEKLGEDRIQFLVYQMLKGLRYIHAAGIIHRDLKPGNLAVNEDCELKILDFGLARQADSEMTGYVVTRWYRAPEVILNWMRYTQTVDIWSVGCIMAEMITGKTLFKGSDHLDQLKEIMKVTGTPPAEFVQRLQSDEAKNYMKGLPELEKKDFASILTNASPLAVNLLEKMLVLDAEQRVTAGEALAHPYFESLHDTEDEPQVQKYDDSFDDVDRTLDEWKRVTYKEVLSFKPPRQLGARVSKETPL
Ros, sequence (P08922 28-2347): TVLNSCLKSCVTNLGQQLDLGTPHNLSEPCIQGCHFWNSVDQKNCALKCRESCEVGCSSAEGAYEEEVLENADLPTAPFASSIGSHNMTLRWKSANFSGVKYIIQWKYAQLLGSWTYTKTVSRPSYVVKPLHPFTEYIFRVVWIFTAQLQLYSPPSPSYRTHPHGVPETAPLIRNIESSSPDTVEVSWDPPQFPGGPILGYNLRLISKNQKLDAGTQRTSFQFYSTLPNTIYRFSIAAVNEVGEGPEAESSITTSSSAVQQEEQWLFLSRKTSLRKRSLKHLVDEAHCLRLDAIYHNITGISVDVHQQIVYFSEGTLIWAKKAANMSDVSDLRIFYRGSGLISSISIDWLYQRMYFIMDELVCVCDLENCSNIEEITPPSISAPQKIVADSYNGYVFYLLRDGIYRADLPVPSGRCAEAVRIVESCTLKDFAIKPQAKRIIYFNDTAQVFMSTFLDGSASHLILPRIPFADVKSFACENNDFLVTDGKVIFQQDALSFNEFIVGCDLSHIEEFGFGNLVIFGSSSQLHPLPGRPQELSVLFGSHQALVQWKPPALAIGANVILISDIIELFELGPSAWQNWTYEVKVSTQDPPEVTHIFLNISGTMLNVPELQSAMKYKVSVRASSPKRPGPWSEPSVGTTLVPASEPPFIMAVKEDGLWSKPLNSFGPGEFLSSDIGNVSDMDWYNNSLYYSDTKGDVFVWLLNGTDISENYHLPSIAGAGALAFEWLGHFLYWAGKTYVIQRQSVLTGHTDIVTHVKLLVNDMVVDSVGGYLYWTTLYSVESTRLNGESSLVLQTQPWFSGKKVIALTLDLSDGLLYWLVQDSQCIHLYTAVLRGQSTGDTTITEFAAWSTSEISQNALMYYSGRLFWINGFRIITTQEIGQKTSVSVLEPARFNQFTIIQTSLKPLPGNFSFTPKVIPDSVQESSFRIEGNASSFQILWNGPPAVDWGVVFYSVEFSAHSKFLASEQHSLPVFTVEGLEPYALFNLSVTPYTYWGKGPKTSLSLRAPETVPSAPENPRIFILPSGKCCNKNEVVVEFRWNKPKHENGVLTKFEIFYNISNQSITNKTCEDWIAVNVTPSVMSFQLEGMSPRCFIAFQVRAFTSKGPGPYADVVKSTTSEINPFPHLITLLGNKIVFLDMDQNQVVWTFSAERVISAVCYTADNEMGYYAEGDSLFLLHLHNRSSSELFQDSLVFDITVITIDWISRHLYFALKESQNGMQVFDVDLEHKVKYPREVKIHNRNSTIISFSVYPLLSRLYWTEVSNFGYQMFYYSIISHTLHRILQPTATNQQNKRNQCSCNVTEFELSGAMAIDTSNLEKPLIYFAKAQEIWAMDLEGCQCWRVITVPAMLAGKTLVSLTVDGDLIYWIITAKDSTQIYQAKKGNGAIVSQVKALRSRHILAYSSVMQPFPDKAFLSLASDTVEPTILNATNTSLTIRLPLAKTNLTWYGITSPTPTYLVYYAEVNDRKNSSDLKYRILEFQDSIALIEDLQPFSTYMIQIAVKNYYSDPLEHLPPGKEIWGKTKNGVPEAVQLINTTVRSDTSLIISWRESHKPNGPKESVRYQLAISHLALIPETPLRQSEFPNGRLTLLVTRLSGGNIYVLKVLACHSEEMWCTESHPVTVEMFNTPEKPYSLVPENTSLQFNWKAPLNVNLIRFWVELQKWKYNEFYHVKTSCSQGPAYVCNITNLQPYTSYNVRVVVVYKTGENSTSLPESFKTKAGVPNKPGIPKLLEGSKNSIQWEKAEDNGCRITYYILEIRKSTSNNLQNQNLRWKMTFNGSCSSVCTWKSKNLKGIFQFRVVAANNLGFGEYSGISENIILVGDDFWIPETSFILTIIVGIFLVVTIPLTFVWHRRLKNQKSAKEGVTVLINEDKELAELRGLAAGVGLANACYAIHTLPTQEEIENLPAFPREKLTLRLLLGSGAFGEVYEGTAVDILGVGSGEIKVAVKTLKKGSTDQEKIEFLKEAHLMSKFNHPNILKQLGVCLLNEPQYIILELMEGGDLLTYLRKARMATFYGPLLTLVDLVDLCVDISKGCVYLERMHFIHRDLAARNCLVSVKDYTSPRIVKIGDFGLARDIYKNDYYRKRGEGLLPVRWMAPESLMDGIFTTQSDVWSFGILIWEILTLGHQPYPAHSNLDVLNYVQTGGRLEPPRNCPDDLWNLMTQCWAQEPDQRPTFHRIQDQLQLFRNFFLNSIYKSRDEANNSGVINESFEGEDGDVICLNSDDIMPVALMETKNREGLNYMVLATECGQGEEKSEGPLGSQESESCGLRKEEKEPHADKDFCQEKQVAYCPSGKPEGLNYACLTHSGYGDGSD
JNK3, sequence (P53779 whole entry): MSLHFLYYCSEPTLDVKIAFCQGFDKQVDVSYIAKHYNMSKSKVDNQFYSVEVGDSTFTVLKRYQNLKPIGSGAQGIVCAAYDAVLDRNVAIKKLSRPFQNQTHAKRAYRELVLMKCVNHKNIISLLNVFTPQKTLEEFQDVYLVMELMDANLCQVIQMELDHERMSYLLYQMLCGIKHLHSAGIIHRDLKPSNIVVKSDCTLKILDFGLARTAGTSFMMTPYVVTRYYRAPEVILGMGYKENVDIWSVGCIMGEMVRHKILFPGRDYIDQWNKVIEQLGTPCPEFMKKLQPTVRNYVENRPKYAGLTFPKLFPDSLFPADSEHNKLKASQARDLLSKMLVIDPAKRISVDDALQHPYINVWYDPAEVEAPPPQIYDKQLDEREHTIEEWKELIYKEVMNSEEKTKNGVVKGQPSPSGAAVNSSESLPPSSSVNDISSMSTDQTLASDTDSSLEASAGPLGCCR
FGFR2, sequence (P21802 22-821): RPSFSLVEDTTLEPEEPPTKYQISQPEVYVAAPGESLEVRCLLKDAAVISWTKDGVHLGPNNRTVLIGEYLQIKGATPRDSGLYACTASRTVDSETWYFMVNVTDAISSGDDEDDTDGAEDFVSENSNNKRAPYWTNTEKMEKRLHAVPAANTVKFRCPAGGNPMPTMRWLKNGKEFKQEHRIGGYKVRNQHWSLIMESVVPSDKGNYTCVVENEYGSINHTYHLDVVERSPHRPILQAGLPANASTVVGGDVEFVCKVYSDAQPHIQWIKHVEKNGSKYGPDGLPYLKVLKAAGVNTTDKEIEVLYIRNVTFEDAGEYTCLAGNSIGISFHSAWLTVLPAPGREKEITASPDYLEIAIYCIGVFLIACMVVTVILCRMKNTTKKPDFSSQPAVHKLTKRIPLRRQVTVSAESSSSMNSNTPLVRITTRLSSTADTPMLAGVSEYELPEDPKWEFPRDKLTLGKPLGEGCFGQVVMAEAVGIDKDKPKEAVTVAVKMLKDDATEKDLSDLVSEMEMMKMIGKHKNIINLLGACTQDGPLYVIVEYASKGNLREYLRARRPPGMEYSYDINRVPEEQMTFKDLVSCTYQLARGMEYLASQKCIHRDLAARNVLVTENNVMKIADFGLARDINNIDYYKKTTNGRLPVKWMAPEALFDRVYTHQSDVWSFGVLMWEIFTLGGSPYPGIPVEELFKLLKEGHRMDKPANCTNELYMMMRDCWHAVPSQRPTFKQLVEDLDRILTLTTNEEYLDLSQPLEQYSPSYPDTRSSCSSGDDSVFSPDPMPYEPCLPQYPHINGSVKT
Ret, sequence (P07949 29-1114): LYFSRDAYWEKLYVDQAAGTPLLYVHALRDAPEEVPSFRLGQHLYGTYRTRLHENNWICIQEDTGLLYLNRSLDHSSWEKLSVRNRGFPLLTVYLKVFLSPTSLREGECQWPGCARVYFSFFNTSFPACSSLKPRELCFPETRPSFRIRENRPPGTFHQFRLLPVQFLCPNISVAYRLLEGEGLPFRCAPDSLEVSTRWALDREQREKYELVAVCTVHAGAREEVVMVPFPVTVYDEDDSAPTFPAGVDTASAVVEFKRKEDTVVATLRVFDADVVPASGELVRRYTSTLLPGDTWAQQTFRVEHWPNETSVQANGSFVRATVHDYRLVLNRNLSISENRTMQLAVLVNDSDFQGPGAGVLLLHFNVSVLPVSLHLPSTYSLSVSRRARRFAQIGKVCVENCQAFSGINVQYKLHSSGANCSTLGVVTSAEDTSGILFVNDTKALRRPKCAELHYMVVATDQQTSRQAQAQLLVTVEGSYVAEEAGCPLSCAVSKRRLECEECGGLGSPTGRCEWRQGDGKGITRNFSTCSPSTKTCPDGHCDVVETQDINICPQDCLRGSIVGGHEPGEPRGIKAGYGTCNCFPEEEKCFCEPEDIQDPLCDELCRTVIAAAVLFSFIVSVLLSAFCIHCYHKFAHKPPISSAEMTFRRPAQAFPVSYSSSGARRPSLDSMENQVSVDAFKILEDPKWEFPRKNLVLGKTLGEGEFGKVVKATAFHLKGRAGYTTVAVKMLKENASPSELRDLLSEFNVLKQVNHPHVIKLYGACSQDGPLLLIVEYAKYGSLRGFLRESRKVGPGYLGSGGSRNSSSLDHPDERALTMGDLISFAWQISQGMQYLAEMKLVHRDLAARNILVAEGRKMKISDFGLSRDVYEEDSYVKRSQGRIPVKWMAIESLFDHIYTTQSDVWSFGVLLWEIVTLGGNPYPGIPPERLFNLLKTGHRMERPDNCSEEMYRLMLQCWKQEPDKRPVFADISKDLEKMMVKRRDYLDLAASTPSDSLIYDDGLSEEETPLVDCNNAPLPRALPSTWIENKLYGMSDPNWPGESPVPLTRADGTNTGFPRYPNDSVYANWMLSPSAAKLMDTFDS

CC(C)(C)c1cc(C(=O)N2CCS(=O)(=O)CC2)c(NC(=O)Nc2ccc(Oc3ccncc3)cc2)s1 [Example 3, 1-[5-tert-Butyl-3-(1,1-dioxo-1λ^6-thiomorpholine-4-carbonyl)thiophen-2-yl]-3-[4-(pyridin-4-yloxy)phenyl]urea]
% Inhibition at 2 μm (JNK3): 0-25% | remaining activity at 2 µM (Ret): 76 to 100% | remaining activity at 2 µM (p38γ; 40 min, P38g, Human, Rate (μM) 2, read-out: % Control): 76 to 100% | % Inhibition at 2 μm (p38γ; p38γ, compound at 2 μm): 76-100% | remaining activity at 2 µM (FGFR2): 51 to 75% | remaining activity at 2 µM (Ros): 76 to 100% | remaining activity at 2 µM (Flt3; 40 min, Flt3, Human, Rate (μM) 2, read-out: % Control): 76 to 100% | % Inhibition at 2 μm (Flt3; Flt3, compound at 2 μm): 76-100%

Reference: patent US7612200B2, “Inhibitors of protein kinases” (Locus Pharmaceuticals, Inc., priority 2004, dated 2009)
